In PubChem BioAssay AID190 (DTP/NCI, 2004):
Where “and” joins values, the source holds several entries; their conditions need not be identical. Equal values may be shown once. Toxic doses and inconclusive results are not listed.

Test system: AKR/Lw mice, AKR lymphoma ip, median survival T/C
Assay: NCI In Vivo Anticancer Drug Screen. Data for tumor model Lymphoma AKR (Transplanted) (intraperitoneal) in AKR/Lw mice
Conditions: endpoint: median survival time, higher = longer survival
Protocol: The antitumor activity of compounds was measured in mice bearing transplantable tumors. Survival or tumor size were measured and the results are expressed as the measurement made in the treated group (T) divided by the measurement made in the vehicle treated control group (C). The tumor model used in this assay is Lymphoma AKR (Transplanted) (intraperitoneal) in AKR/Lw mice

**Q.** Which results are given for `Clc1ccc(/C(=[C](\[Hg]/[C](=C(\c2ccccc2)c2ccc(Cl)cc2)c2ccccc2)c2ccccc2)c2ccccc2)cc1`?
**A.** T/C (dose: 100.0 mg/kg/injection, schedule: Q01DX001 (ip), vehicle: Klucel (hydroxypropylcellulose) (HPC)): 97 % of control; T/C (dose: 100.0 mg/kg/injection, schedule: Q04DX003 (ip), vehicle: Klucel (hydroxypropylcellulose) (HPC)): 100 % of control; T/C (dose: 200.0 mg/kg/injection, schedule: Q01DX001 (ip), vehicle: Klucel (hydroxypropylcellulose) (HPC)): 107 % of control; T/C (dose: 200.0 mg/kg/injection, schedule: Q04DX003 (ip), vehicle: Klucel (hydroxypropylcellulose) (HPC)): 88 % of control; T/C (dose: 400.0 mg/kg/injection, schedule: Q01DX001 (ip), vehicle: Klucel (hydroxypropylcellulose) (HPC)): 97 % of control; T/C (dose: 400.0 mg/kg/injection, schedule: Q04DX003 (ip), vehicle: Klucel (hydroxypropylcellulose) (HPC)): 100 % of control

**Q.** How did the T/C (dose: 0.12 mg/kg/injection, schedule: Q01DX009 (ip), vehicle: saline) turn out when `O=NN(CCCl)C(=O)NCCCl` was run?
**A.** 105 % of control

**Q.** What about the T/C (dose: 0.25 mg/kg/injection, schedule: Q01DX009 (ip), vehicle: saline) of the same compound?
**A.** 87 % of control and 107 % of control

**Q.** And the T/C (dose: 0.25 mg/kg/injection, schedule: Q04DX003 (ip), vehicle: saline)?
**A.** 90 % of control and 97 % of control

**Q.** What about the T/C (dose: 0.5 mg/kg/injection, schedule: Q04DX004 (ip), vehicle: saline) of the same compound?
**A.** 96 % of control

**Q.** And the T/C (dose: 1.0 mg/kg/injection, schedule: Q04DX004 (ip), vehicle: saline)?
**A.** 108 % of control and 112 % of control

**Q.** What about the T/C (dose: 1.5 mg/kg/injection, schedule: Q04DX003 (ip), vehicle: saline) of the same compound?
**A.** 107 % of control

**Q.** And the T/C (dose: 1.5 mg/kg/injection, schedule: Q07DX003 (ip), vehicle: saline)?
**A.** 87 % of control and 118 % of control

**Q.** What about the T/C (dose: 2.5 mg/kg/injection, schedule: Q04DX003 (ip), vehicle: saline) of the same compound?
**A.** 93 % of control

**Q.** And the T/C (dose: 3.0 mg/kg/injection, schedule: Q01DX001 (ip), vehicle: saline)?
**A.** 100 % of control and 114 % of control

**Q.** And the T/C (dose: 3.0 mg/kg/injection, schedule: Q01DX009 (ip), vehicle: saline)?
**A.** 87 % of control

**Q.** And the T/C (dose: 3.0 mg/kg/injection, schedule: Q04DX003 (ip), vehicle: saline)?
**A.** 86 % of control

**Q.** And the T/C (dose: 3.0 mg/kg/injection, schedule: Q07DX003 (ip), vehicle: saline)?
**A.** 109 % of control and 121 % of control

**Q.** What about the T/C (dose: 3.13 mg/kg/injection, schedule: Q04DX003 (ip), vehicle: water) of the same compound?
**A.** 98 % of control

**Q.** And the T/C (dose: 3.75 mg/kg/injection, schedule: Q01DX001 (ip), vehicle: saline)?
**A.** 117 % of control

**Q.** What about the T/C (dose: 4.0 mg/kg/injection, schedule: Q04DX004 (ip), vehicle: saline) of the same compound?
**A.** 153 % of control

**Q.** And the T/C (dose: 5.0 mg/kg/injection, schedule: Q01DX001 (ip), vehicle: saline)?
**A.** 93 % of control and 100 % of control and 103 % of control

**Q.** What about the T/C (dose: 5.0 mg/kg/injection, schedule: Q01DX009 (ip), vehicle: saline) of the same compound?
**A.** 333 % of control

**Q.** What about the T/C (dose: 5.0 mg/kg/injection, schedule: Q04DX003 (ip), vehicle: saline) of the same compound?
**A.** 103 % of control

**Q.** And the T/C (dose: 5.0 mg/kg/injection, schedule: Q10DX004 (ip), vehicle: saline)?
**A.** 103 % of control

**Q.** What about the T/C (dose: 6.0 mg/kg/injection, schedule: Q04DX003 (ip), vehicle: saline) of the same compound?
**A.** 97 % of control

**Q.** What about the T/C (dose: 6.0 mg/kg/injection, schedule: Q07DX003 (ip), vehicle: saline) of the same compound?
**A.** 100 % of control and 118 % of control

**Q.** And the T/C (dose: 6.2 mg/kg/injection, schedule: Q01DX001 (ip), vehicle: saline)?
**A.** 106 % of control

**Q.** And the T/C (dose: 6.25 mg/kg/injection, schedule: Q04DX003 (ip), vehicle: water)?
**A.** 124 % of control

**Q.** What about the T/C (dose: 7.5 mg/kg/injection, schedule: Q01DX001 (ip), vehicle: saline) of the same compound?
**A.** 118 % of control

**Q.** What about the T/C (dose: 8.0 mg/kg/injection, schedule: Q04DX004 (ip), vehicle: saline) of the same compound?
**A.** 171 % of control

**Q.** And the T/C (dose: 10.0 mg/kg/injection, schedule: Q01DX009 (ip), vehicle: saline)?
**A.** 97 % of control

**Q.** And the T/C (dose: 10.0 mg/kg/injection, schedule: Q04DX003 (ip), vehicle: saline)?
**A.** 106 % of control

**Q.** What about the T/C (dose: 10.0 mg/kg/injection, schedule: Q10DX004 (ip), vehicle: saline) of the same compound?
**A.** 111 % of control

**Q.** And the T/C (dose: 10.0 mg/kg/injection, schedule: Q14DX003 (ip), vehicle: saline)?
**A.** 123 % of control

**Q.** What about the T/C (dose: 12.5 mg/kg/injection, schedule: Q01DX001 (ip), vehicle: saline) of the same compound?
**A.** 118 % of control

**Q.** What about the T/C (dose: 12.5 mg/kg/injection, schedule: Q04DX003 (ip), vehicle: water) of the same compound?
**A.** 88 % of control

**Q.** What about the T/C (dose: 15.0 mg/kg/injection, schedule: Q10DX004 (ip), vehicle: saline) of the same compound?
**A.** 113 % of control

**Q.** What about the T/C (dose: 15.0 mg/kg/injection, schedule: Q14DX003 (ip), vehicle: saline) of the same compound?
**A.** 98 % of control

**Q.** And the T/C (dose: 16.0 mg/kg/injection, schedule: Q01DX009 (ip), vehicle: saline)?
**A.** 97 % of control

**Q.** What about the T/C (dose: 16.0 mg/kg/injection, schedule: Q04DX004 (ip), vehicle: saline) of the same compound?
**A.** 168 % of control

**Q.** And the T/C (dose: 20.0 mg/kg/injection, schedule: Q01DX009 (ip), vehicle: saline)?
**A.** 97 % of control

**Q.** What about the T/C (dose: 20.0 mg/kg/injection, schedule: Q10DX004 (ip), vehicle: saline) of the same compound?
**A.** 101 % of control

**Q.** What about the T/C (dose: 20.0 mg/kg/injection, schedule: Q14DX003 (ip), vehicle: saline) of the same compound?
**A.** 115 % of control

**Q.** And the T/C (dose: 24.0 mg/kg/injection, schedule: Q01DX001 (ip), vehicle: saline)?
**A.** 86 % of control

**Q.** What about the T/C (dose: 25.0 mg/kg/injection, schedule: Q04DX003 (ip), vehicle: water) of the same compound?
**A.** 108 % of control

**Q.** And the T/C (dose: 32.0 mg/kg/injection, schedule: Q04DX004 (ip), vehicle: saline)?
**A.** 103 % of control

**Q.** What about the T/C (dose: 45.0 mg/kg/injection, schedule: Q01DX001 (ip), vehicle: saline) of the same compound?
**A.** 54 % of control and 95 % of control

**Q.** What about the T/C (dose: 60.0 mg/kg/injection, schedule: Q01DX001 (ip), vehicle: saline) of the same compound?
**A.** 23 % of control and 86 % of control
